Test results from ChEMBL document CHEMBL5380837, “Structure-Activity Relationships of Truncated 1'-Homologated Carbaadenosine Derivatives as New PPARγ/δ Ligands: A Study on Sugar Puckering Affecting Binding to PPARs” (J Med Chem, 2023).

How the values were obtained:
[1] = biological target: T1, Peroxisome proliferator-activated receptor delta (Homo sapiens) (UniProt Q03181); experiment: Binding affinity to PPARdelta (unknown origin) at 30 uM by TR-FRET based LanthaScreen competitive binding assay relative to control
T1 sequence (whole entry): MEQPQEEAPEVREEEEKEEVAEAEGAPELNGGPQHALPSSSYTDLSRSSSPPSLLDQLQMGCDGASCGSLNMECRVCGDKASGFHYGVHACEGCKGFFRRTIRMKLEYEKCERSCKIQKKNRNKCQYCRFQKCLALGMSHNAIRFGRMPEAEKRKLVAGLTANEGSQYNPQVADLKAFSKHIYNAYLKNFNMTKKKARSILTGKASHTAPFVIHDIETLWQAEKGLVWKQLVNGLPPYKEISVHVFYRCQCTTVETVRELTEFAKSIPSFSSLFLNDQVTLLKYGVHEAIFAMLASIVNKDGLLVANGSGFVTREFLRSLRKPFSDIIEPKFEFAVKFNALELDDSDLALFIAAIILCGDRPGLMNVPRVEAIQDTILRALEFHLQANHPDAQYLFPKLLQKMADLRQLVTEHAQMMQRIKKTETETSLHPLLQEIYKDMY

[2] = biological target: T2, Peroxisome proliferator-activated receptor alpha (Homo sapiens) (UniProt Q07869); experiment: Binding affinity to PPARalpha (unknown origin) at 30 uM by TR-FRET based LanthaScreen competitive binding assay relative to control
T2 sequence (whole entry): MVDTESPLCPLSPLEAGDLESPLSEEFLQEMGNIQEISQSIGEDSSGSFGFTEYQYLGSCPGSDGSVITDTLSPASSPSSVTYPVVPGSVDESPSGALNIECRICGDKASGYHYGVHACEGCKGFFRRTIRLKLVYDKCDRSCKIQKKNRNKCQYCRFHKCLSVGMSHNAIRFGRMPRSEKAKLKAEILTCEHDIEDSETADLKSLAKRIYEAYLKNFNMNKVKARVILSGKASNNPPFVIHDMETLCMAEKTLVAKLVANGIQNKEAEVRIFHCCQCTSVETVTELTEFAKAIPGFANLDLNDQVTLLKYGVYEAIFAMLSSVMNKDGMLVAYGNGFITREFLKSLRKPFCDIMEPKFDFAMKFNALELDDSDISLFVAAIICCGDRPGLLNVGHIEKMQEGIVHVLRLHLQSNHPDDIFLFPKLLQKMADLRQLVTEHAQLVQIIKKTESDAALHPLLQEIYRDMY

[3] = biological target: T3, Peroxisome proliferator-activated receptor delta (Homo sapiens, UniProt Q03181); experiment: Binding affinity to PPARdelta (unknown origin) assessed as inhibition constant by TR-FRET based LanthaScreen competitive binding assay
T3 sequence (Q03181 whole entry): T1 sequence (whole entry)

[4] = biological target: T3, Peroxisome proliferator-activated receptor delta; experiment: Antagonist activity at PPARdelta LBD (unknown origin) assessed as increase in fluorescein labeled SMRT-ID2 corepressor peptide requirement by TR-FRET assay
[5] = biological target: T4, Peroxisome proliferator-activated receptor gamma (Homo sapiens, UniProt P37231); experiment: Binding affinity to PPARgamma (unknown origin) assessed as inhibition constant by TR-FRET based LanthaScreen competitive binding assay
T4 sequence (P37231 whole entry): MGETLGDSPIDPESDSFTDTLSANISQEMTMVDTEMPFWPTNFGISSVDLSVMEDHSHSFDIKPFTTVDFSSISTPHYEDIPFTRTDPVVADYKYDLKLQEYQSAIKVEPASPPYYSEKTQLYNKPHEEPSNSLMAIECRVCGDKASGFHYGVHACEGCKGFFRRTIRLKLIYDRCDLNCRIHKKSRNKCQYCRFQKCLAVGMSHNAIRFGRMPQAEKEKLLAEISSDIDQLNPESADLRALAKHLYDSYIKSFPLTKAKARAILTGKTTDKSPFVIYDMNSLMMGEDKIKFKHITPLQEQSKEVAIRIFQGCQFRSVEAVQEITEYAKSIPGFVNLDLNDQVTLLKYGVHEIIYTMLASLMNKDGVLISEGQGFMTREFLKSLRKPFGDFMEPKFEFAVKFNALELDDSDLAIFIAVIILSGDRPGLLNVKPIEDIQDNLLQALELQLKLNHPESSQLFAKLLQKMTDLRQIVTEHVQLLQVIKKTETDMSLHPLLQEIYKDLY

Activity [1] [%]	Activity [2] [%]	SMILES	also measured
12.9	6.6	O[C@H]1[C@H](Cn2cnc3c(NCc4cccc(Br)c4)ncnc32)CC[C@H]1O	–
–	4.6	O[C@@H]1[C@H](O)[C@@H]2C[C@@H]2[C@H]1Cn1cnc2c(NCc3cccc(I)c3)ncnc21	Activity ([1]; filed as antagonist): 45.8%
–	6.4	COC(=O)c1sccc1S(=O)(=O)Nc1ccc(Nc2ccccc2)cc1OC	–
0.8	7.1	O[C@@H]1[C@H](O)[C@@H]2C[C@@H]2[C@H]1Cn1cnc2c(NCc3cccc(F)c3)ncnc21	–
20	8.3	O[C@@H]1[C@H](O)[C@@H]2C[C@@H]2[C@H]1Cn1cnc2c(NCc3cccc(Br)c3)ncnc21	–
4.8	63	O[C@H]1[C@H](Cn2cnc3c(NCc4cccc(F)c4)ncnc32)CC[C@H]1O	–
9.2	5.6	O[C@@H]1C[C@@H]2C[C@]2(Cn2cnc3c(NCc4cccc(Br)c4)ncnc32)[C@@H]1O	–
4.2	0.7	O[C@@H]1[C@H](O)C=C[C@H]1Cn1cnc2c(NCc3cccc(Br)c3)ncnc21	–
2	6.9	O[C@@H]1C[C@@H]2C[C@]2(Cn2cnc3c(NCc4cccc(Cl)c4)ncnc32)[C@@H]1O	–
2.4	5.2	O[C@@H]1[C@H](O)C=C[C@H]1Cn1cnc2c(NCc3cccc(F)c3)ncnc21	–
–	3.8	O[C@@H]1[C@H](O)[C@@H]2C[C@@H]2[C@H]1Cn1cnc2c(NCc3cccc(Cl)c3)nc(Cl)nc21	Ki [3]: 978 nM
–	3.6	O[C@@H]1[C@H](O)[C@@H]2C[C@@H]2[C@H]1Cn1cnc2c(NCc3cccc(F)c3)nc(Cl)nc21	Activity ([1]; filed as antagonist): 46.3%
7.3	4.1	O[C@@H]1[C@H](O)C=C[C@H]1Cn1cnc2c(NCc3cccc(I)c3)ncnc21	–
–	4	O[C@@H]1[C@H](O)C=C[C@H]1Cn1cnc2c(NCc3cccc(Cl)c3)nc(Cl)nc21	Ki [3]: 2490 nM
7.4	2.7	O[C@@H]1C[C@@H]2C[C@]2(Cn2cnc3c(NCc4cccc(F)c4)ncnc32)[C@@H]1O	–
2	4	O[C@H]1[C@H](Cn2cnc3c(NCc4cccc(Cl)c4)ncnc32)CC[C@H]1O	–
39.4	5.3	O[C@H]1[C@H](Cn2cnc3c(NCc4cccc(I)c4)ncnc32)CC[C@H]1O	–
–	0.3	O[C@@H]1[C@H](O)CO[C@H]1Cn1cnc2c(NCc3cccc(Br)c3)nc(Cl)nc21	EC50 [4]: 26400 nM; Ki [3]: 374 nM; Ki [5]: 3600 nM
8.6	9.4	O[C@@H]1C[C@@H]2C[C@]2(Cn2cnc3c(NCc4cccc(I)c4)ncnc32)[C@@H]1O	–
13.4	6	O[C@@H]1[C@H](O)[C@@H]2C[C@@H]2[C@H]1Cn1cnc2c(NCc3cccc(Cl)c3)ncnc21	–
5.9	0.8	O[C@@H]1[C@H](O)C=C[C@H]1Cn1cnc2c(NCc3cccc(Cl)c3)ncnc21	–
–	5.1	O[C@H]1[C@H](Cn2cnc3c(NCc4cccc(Cl)c4)nc(Cl)nc32)CC[C@H]1O	Ki [3]: 1620 nM
–	34.9	Cc1cc(SCc2sc(-c3ccc(C(F)(F)F)cc3)nc2C)ccc1OCC(=O)O	–
37	6.5	O[C@H]1[C@H](Cn2cnc3c(NCc4cccc(F)c4)nc(Cl)nc32)CC[C@H]1O	–
34.6	3.8	O[C@@H]1[C@H](O)[C@@H]2C[C@@H]2[C@H]1Cn1cnc2c(NCc3ccccc3I)nc(Cl)nc21	Ki [5]: 2300 nM
11.9	1.7	O[C@@H]1C[C@@H]2C[C@]2(Cn2cnc3c(NCc4cccc(F)c4)nc(Cl)nc32)[C@@H]1O	–
28.4	7	O[C@@H]1[C@H](O)C=C[C@H]1Cn1cnc2c(NCc3cccc(F)c3)nc(Cl)nc21	–
–	9.2	COc1cccc(CNc2nc(Cl)nc3c2ncn3C[C@H]2[C@H](O)[C@H](O)[C@@H]3C[C@H]23)c1	Ki [3]: 292 nM
–	2.7	O[C@@H]1[C@H](O)[C@@H]2C[C@@H]2[C@H]1Cn1cnc2c(NCc3ccc(I)cc3)nc(Cl)nc21	Ki [3]: 1150 nM
